Measurements from PMC5379747, “Structural basis for a novel type of cytokinin-activating protein” (Scientific Reports, 2017).

What was measured:
[1] = target: T1, Cg1261 (CgLOGII, CgLOGIIF) (Corynebacterium glutamicum, UniProt Q8NRE2, D177A); assay: TLC detection of adenine released from AMP; assay type: biochemical; conditions: 20 mM AMP, 36 mM Tris-HCl pH 8.0, 23 μM enzyme, 6 h
T1 construct: gene Cgl1110; full length, pET30a with C-terminal 6xHis, E. coli BL21(DE3), hexamer; residues 1-39 disordered in crystal
T1 sequence (Q8NRE2 entry or part of it D177A): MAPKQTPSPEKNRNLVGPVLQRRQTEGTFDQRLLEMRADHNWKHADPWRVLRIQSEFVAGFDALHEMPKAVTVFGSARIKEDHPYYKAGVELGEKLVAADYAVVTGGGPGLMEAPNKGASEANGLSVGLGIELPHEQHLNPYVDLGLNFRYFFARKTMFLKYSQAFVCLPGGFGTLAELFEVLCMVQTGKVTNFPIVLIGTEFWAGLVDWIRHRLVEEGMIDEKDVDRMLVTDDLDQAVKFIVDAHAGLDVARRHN

Tt1465 (TtLOGII) = target: T2, Tt1465 (TtLOGII) (Thermus thermophilus, UniProt Q5SHT6); assay: TLC detection of adenine released from AMP; assay type: biochemical; conditions: 20 mM AMP, 36 mM Tris-HCl pH 8.0, 23 μM enzyme, 65 °C
T2 construct: gene TTHA1644; recombinant, prepared similarly to CgLOGII; hexamer
T2 sequence (Q5SHT6 1-217): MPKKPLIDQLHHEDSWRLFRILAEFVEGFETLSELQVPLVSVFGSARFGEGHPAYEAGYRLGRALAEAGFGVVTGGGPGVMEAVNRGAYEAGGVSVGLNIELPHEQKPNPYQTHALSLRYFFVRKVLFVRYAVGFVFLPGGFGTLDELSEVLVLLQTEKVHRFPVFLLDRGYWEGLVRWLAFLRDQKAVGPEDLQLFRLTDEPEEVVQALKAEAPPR

[2] = target: T3, Cg1261 (CgLOGII, CgLOGIIF) (Corynebacterium glutamicum, UniProt Q8NRE2, F152A); assay: TLC detection of adenine released from AMP; assay type: biochemical; conditions: 20 mM AMP, 36 mM Tris-HCl pH 8.0, 23 μM enzyme, 6 h
T3 construct: gene Cgl1110; full length, pET30a with C-terminal 6xHis, E. coli BL21(DE3), hexamer; residues 1-39 disordered in crystal
T3 sequence (Q8NRE2 entry or part of it F152A): as the sequence (Q8NRE2 entry or part of it D177A) above, with F152A, A177D counted along it

Cg1261ΔDNR (CgLOGIIΔDNR) = target: T4, Cg1261ΔDNR (CgLOGIIΔDNR) (Corynebacterium glutamicum, UniProt Q8NRE2); assay: TLC detection of adenine released from AMP; assay type: biochemical; conditions: 20 mM AMP, 36 mM Tris-HCl pH 8.0, 23 μM enzyme, 30 °C
T4 construct: gene Cgl1110; E. coli expressed, hexamer

[3] = target: T5, Cg1261 (CgLOGII, CgLOGIIF) (Corynebacterium glutamicum, UniProt Q8NRE2, M185A); assay: TLC detection of adenine released from AMP; assay type: biochemical; conditions: 20 mM AMP, 36 mM Tris-HCl pH 8.0, 23 μM enzyme, 6 h
T5 construct: gene Cgl1110; full length, pET30a with C-terminal 6xHis, E. coli BL21(DE3), hexamer; residues 1-39 disordered in crystal
T5 sequence (Q8NRE2 entry or part of it M185A): as the sequence (Q8NRE2 entry or part of it D177A) above, with A177D, M185A counted along it

[4] = target: T6, Cg1261 (CgLOGII, CgLOGIIF) (Corynebacterium glutamicum, UniProt Q8NRE2); assay: TLC detection of adenine released from AMP; assay type: biochemical; conditions: 20 mM AMP, 36 mM Tris-HCl pH 8.0, 23 μM enzyme, 30 °C
T6 construct: gene Cgl1110; full length, pET30a with C-terminal 6xHis, E. coli BL21(DE3), hexamer; residues 1-39 disordered in crystal
T6 sequence (Q8NRE2 1-256): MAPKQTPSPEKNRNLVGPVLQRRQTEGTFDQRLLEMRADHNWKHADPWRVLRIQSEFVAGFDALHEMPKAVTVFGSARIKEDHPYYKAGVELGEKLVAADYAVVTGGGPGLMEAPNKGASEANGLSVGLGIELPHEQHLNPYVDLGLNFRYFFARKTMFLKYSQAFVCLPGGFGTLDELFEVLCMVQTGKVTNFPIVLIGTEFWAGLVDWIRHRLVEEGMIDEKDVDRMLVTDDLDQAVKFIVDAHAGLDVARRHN

[5] = target: T7, Cg1261 (CgLOGII, CgLOGIIF) (Corynebacterium glutamicum, UniProt Q8NRE2, F153A); assay: TLC detection of adenine released from AMP; assay type: biochemical; conditions: 20 mM AMP, 36 mM Tris-HCl pH 8.0, 23 μM enzyme, 6 h
T7 construct: gene Cgl1110; full length, pET30a with C-terminal 6xHis, E. coli BL21(DE3), hexamer; residues 1-39 disordered in crystal
T7 sequence (Q8NRE2 entry or part of it F153A): as the sequence (Q8NRE2 entry or part of it D177A) above, with F153A, A177D counted along it

[6] = target: Cg1261 (CgLOGII), full-length, from Corynebacterium glutamicum ATCC 13032 (Corynebacterium glutamicum ATCC 13032); assay: SAXS; in solution, 4 °C, 0.5 ~4.5 mg/mL; molecular mass by the QR method
[7] = target: Cg1261 (CgLOGII), full-length, from Corynebacterium glutamicum ATCC 13032 (Corynebacterium glutamicum ATCC 13032); assay: SEC; analytical, Superdex 200 10/300, 150 mM NaCl, 1 mL of 3 mg/ml; masses from a calibration curve of standards
[8] = target: Cg1261 (CgLOGII), full-length, from Corynebacterium glutamicum ATCC 13032 (Corynebacterium glutamicum ATCC 13032); assay: crystal structure; CgLOGII crystals, space group C222_(1), three molecules in the asymmetric unit; hexamer generated by crystallographic symmetry; 1.95 Å
[9] = target: Cg1261 DNR-truncated (Cg1261ΔDNR) (Corynebacterium glutamicum ATCC 13032); assay: SAXS; in solution, 4 °C, 0.5 ~4.5 mg/mL; molecular mass by the QR method
[10] = target: Cg1261 DNR-truncated (Cg1261ΔDNR) (Corynebacterium glutamicum ATCC 13032); assay: SEC; analytical, Superdex 200 10/300, 150 mM NaCl, 1 mL of 3 mg/ml; masses from a calibration curve of standards
[11] = target: CgLOG (Cg2612) from Corynebacterium glutamicum (Corynebacterium glutamicum); assay: as above

Compound: Nc1ncnc2c1ncn2[C@@H]1O[C@H](COP(=O)(O)O)[C@@H](O)[C@H]1O [AMP]
- TLC detection of adenine released from AMP [1]: Asp177Ala substitution resulted in an almost complete loss of the activity
- TLC detection of adenine released from AMP (Tt1465 (TtLOGII)): Tt1465 hydrolyzed AMP into an adenine base and ribose 5-phosphate
- TLC detection of adenine released from AMP [2]: such as Phe152, Phe153, and Met185, substituted with alanine still showed the activity
- TLC detection of adenine released from AMP (Cg1261ΔDNR (CgLOGIIΔDNR)): Cg1261ΔDNR showed the same level of phosphoribohydrolase activity as Cg1261
- TLC detection of adenine released from AMP [3]: such as Phe152, Phe153, and Met185, substituted with alanine still showed the activity
- TLC detection of adenine released from AMP [4]: hydrolyzed AMP into an adenine base and ribose 5-phosphate
- TLC detection of adenine released from AMP [5]: such as Phe152, Phe153, and Met185, substituted with alanine still showed the activity

Compound: Cg1261 (CgLOGII), full-length, from Corynebacterium glutamicum ATCC 13032 (enzyme)
- stoichiometry N [6]: 6
- stoichiometry N [7]: 6
- stoichiometry N [8]: 6

Compound: Cg1261 DNR-truncated (Cg1261ΔDNR) (domain or fragment)
- stoichiometry N [9]: 6
- stoichiometry N [10]: 6

Compound: CgLOG (Cg2612) from Corynebacterium glutamicum (enzyme)
- stoichiometry N [11]: 2
